Experimental data published in ChEMBL document CHEMBL1148726, “Allosteric inhibitors of hepatitis C polymerase: discovery of potent and orally bioavailable carbon-linked dihydropyrones” (J Med Chem, 2007).
Each block holds one molecule with its values, some of them ahead of it. The source made the active and inactive calls. The calls are words filed in the database; no cut-off is given here.

How the values were obtained:
[1] = Inhibition of HCV 1b NS5B delta21 RNA dependent RNA polymerase by enzymatic assay; set-up: species or system Hepacivirus hominis
Hepatitis C virus = experiment: Antiviral activity against Hepatitis C virus infected Huh7 cells; assay type: functional, organism-based, Hepacivirus hominis, Huh-7
[2] = Cytotoxic against Huh7 cells; assay type: cell-based, Huh-7; settings: human
[3] = Total plasma clearance in rat at 10 mg/kg, po or 2 mg/kg, iv; assay type: ADME, organism-based
[4] = Volume of distribution in rat at 10 mg/kg, po or 2 mg/kg, iv; assay type: ADME, organism-based; settings: in vivo, read-out: Vdss
[5] = Permeability from basolateral to apical side of the Caco-2 cell membrane; assay type: ADME, cell-based; settings: human
[6] = Ratio of EC50 for HCV in Huh7 cells to IC50 for HCV NS5 B delta 21 polymerase; assay type: functional, Hepacivirus hominis, Huh-7
[7] = Permeability from apical to basolateral side of the Caco-2 cell membrane; assay type: ADME, cell-based; settings: human
[8] = Fraction absorption in rat at 10 mg/kg, po; assay type: ADME, organism-based; set-up: dose 10 mg/kg, route oral; settings: in vivo
[9] = Half life in rat at 10 mg/kg, po or 2 mg/kg, iv; assay type: ADME, organism-based; settings: in vivo
[10] = (§1) Bioavailability in rat at 10 mg/kg, po; assay type: ADME, organism-based; settings: in vivo
Hepacivirus hominis = experiment: (§2) Inhibition of HCV 1a NS5B delta21 RNA dependent RNA polymerase by enzymatic assay
Rattus norvegicus [11] = experiment: (§3) Half life in rat at 25 mg/kg, po or 5 mg/kg, iv; assay type: ADME, organism-based; settings: in vivo
Rattus norvegicus [12] = experiment: (§4) Volume of distribution in rat at 25 mg/kg, po or 5 mg/kg, iv; assay type: ADME, organism-based; settings: in vivo
[13] = Total plasma clearance in rat at 25 mg/kg, po or 5 mg/kg, iv; assay type: ADME, organism-based
[14] = as §3; assay type: ADME, organism-based; settings: in vivo
[15] = as §2; set-up: species or system Hepacivirus hominis
[16] = as §4; assay type: ADME, organism-based; settings: in vivo, read-out: Vdss
Rattus norvegicus [17] = experiment: as §1; assay type: ADME, organism-based; settings: in vivo
[18] = Fraction absorption in rat at 25 mg/kg, po; assay type: ADME, organism-based; set-up: dose 25 mg/kg, route oral; settings: in vivo
[19] = Bioavailability in rat at 25 mg/kg, po; assay type: ADME, organism-based; settings: in vivo

IC50 [1]: 54 nM | EC50 (Hepatitis C virus; Hepatitis C virus, Huh-7): 1200 nM
SMILES: COc1ccc(CCC2(C3CCCC3)CC(O)=C(Cc3nc4nc(C)cc(C)n4n3)C(=O)O2)cc1C (stereo not given)
CC50 ([2]; Huh7 cells): > 32000 nM

clearance [3]: 8.3 mL/min/kg | Vd [4]: 0.3 L/kg | Papp B→A [5]: 6.8 ×10⁻⁶ cm/s | IC50 [1]: 20 nM | Papp A→B [7]: 10 ×10⁻⁶ cm/s | Fa [8]: 48% | half-life [9]: 30 min | EC50 (Hepatitis C virus; Hepatitis C virus, Huh-7): 330 nM | bioavailability [10]: 42%
SMILES: COc1ccc(CCC2(C3CCCC3)CC(O)=C(Cc3nc4nc(C)cc(C)n4n3)C(=O)O2)cc1Cl (stereo not given)
Ratio [6]: 17 | CC50 ([2]; Huh7 cells): > 32000 nM

Activity (Hepacivirus hominis): inactive
SMILES: Cc1cc(C)n2nc(CC3=C(O)CC(CCc4ccc(C(C)(C)C#N)c(F)c4)(C4CCCC4)OC3=O)nc2n1 (single isomer, unassigned; enantiomer 2) [listing 1 of 2 here]

IC50 [1]: 2 nM
SMILES: Cc1cc(C)n2nc(CC3=C(O)CC(CCc4ccc(C(C)(C)C#N)c(Cl)c4)(C4CCCC4)OC3=O)nc2n1 (stereo not given)
CC50 ([2]; Huh7 cells): > 32000 nM

IC50 [1]: 17 nM | EC50 (Hepatitis C virus; Hepatitis C virus, Huh-7): 110 nM
SMILES: Cc1cc(C)n2nc(CC3=C(O)CC(CCc4ccc(C(C)(C)NS(C)(=O)=O)c(F)c4)(C4CCCC4)OC3=O)nc2n1 (stereo not given)
CC50 ([2]; Huh7 cells): > 32000 nM

IC50 [1]: 930 nM
SMILES: Cc1cc(SC2=C(O)OC(CCc3ccc(O)cc3)(C3CCCC3)CC2=O)c(C(C)(C)C)cc1N (stereo not given)

t1/2 (Rattus norvegicus [11]): 28.2 min | IC50 [1]: 1 nM | Vdss (Rattus norvegicus [12]): 0.17 L/kg | EC50 (Hepatitis C virus; huh-7): 32 nM | bioavailability [10]: 37%
SMILES: Cc1cc(C)n2nc(CC3=C(O)CC(CCc4ccc(C(C)(C)C#N)c(F)c4)(C4CCCC4)OC3=O)nc2n1 (single isomer, unassigned; enantiomer 2) [listing 2 of 2 here]

IC50 [1]: 60 nM | EC50 (Hepatitis C virus; Hepatitis C virus, Huh-7): 610 nM
SMILES: Cc1cc(C)n2nc(CC3=C(O)CC(CCc4ccc(S(C)(=O)=O)c(Cl)c4)(C4CCCC4)OC3=O)nc2n1 (stereo not given)
CC50 ([2]; Huh7 cells): > 32000 nM

IC50 [1]: 4 nM | EC50 (Hepatitis C virus; Hepatitis C virus, Huh-7): 320 nM
SMILES: CCOc1ccc(CCC2(C3CCCC3)CC(O)=C(Cc3nc4nc(C)cc(C)n4n3)C(=O)O2)cc1Cl (stereo not given)
CC50 ([2]; Huh7 cells): > 32000 nM

IC50 [1]: 3 nM | EC50 (Hepatitis C virus; huh-7): 30 nM
SMILES: Cc1cc(C)n2nc(CC3=C(O)CC(CCc4ccc(C(C)(C)C#N)c(F)c4)(C4CCCC4)OC3=O)nc2n1 (stereo in doubt; 22)
CC50 ([2]; huh-7): > 32000 nM

IC50 [1]: 15 nM | EC50 (Hepatitis C virus; Hepatitis C virus, Huh-7): 400 nM
SMILES: COc1ccc(CCC2(C3CCCC3)CC(O)=C(Cc3nc4nc(C)cc(C)n4n3)C(=O)O2)cc1F (stereo not given)
CC50 ([2]; Huh7 cells): > 32000 nM

clearance [13]: 3.7 mL/min/kg | half-life [14]: 52.8 min | IC50 [15]: 70 nM | Vd [16]: 0.3 L/kg | F (Rattus norvegicus [17]): 31%
SMILES: Cc1cc(C)n2nc(CC3=C(O)CC(CCc4ccc(C(C)(C)C#N)c(F)c4)(C4CCCC4)OC3=O)nc2n1 (single isomer, unassigned; enantiomer 1)
CC50 ([2]; huh-7): 320000 nM

Fa [18]: 2.5% | clearance [13]: 14.8 mL/min/kg | half-life [14]: 90 min | Papp B→A [5]: 2.3 ×10⁻⁶ cm/s | IC50 [1]: 36 nM | Vd [16]: 2 L/kg | Papp A→B [7]: 3 ×10⁻⁶ cm/s | EC50 (Hepatitis C virus; Hepatitis C virus, Huh-7): 3250 nM | bioavailability [19]: 2%
SMILES: COc1ccc(CCC2(C3CCCC3)CC(O)=C(Sc3nc4nc(C)cc(C)n4n3)C(=O)O2)cc1Cl (stereo not given)
Ratio [6]: 90 | CC50 ([2]; Huh7 cells): > 100000 nM
